Source: publication PMC7470090, “Identification of probe-quality degraders for Poly(ADP-ribose) polymerase-1 (PARP-1)” (Journal of Enzyme Inhibition and Medicinal Chemistry, 2020)

Target: T1, PARP-1 (Homo sapiens, UniProt P09874)
T1 construct: gene PARP1
Assay: cell-free PARP-1 inhibition assay, dose-response
Assay type: biochemical

T1 sequence (P09874 2-1014): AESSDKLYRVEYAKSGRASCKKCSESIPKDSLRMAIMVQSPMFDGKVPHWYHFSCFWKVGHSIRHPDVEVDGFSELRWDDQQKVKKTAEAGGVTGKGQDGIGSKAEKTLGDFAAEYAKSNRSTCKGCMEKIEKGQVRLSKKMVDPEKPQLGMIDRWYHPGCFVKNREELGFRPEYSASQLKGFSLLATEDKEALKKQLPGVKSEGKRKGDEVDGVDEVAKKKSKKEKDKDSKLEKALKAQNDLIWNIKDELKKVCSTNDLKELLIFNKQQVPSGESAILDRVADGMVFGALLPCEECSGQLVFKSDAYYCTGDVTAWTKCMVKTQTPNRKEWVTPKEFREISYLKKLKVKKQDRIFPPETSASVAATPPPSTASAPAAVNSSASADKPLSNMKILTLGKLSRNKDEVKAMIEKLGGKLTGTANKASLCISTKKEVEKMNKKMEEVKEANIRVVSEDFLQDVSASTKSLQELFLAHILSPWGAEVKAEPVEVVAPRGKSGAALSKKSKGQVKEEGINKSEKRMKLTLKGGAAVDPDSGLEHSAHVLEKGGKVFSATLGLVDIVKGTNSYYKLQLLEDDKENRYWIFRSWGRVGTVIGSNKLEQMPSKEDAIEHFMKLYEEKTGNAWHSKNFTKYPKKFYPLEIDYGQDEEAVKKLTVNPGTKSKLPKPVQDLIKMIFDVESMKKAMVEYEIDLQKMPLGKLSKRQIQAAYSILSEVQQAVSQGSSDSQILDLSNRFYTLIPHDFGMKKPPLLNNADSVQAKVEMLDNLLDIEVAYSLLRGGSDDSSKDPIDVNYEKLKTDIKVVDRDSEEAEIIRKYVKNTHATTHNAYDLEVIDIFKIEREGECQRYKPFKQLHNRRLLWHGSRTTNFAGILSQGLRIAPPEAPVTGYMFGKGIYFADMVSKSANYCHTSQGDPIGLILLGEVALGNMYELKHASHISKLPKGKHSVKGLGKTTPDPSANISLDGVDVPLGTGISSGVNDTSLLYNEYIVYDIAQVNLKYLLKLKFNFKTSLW

IC50 [nM] | Compound
71.3 | O=C1CCC(N2Cc3c(NC(=O)CCCCCCCNC(=O)c4cc(Cc5n[nH]c(=O)c6ccccc56)ccc4F)cccc3C2=O)C(=O)N1 (stereo not drawn) [compound 1, N-(8-((2–(2,6-dioxopiperidin-3-yl)-1-oxoisoindolin-4-yl)amino)-8-oxooctyl)-2-fluoro-5-((4-oxo-3,4-dihydrophthalazin-1-yl)methyl)benzamide]
54.7 | O=C1CCC(N2Cc3c(NC(=O)CCCCCCCCCCNC(=O)c4cc(Cc5n[nH]c(=O)c6ccccc56)ccc4F)cccc3C2=O)C(=O)N1 (stereo not drawn) [compound 2, N-(11-((2–(2,6-dioxopiperidin-3-yl)-1-oxoisoindolin-4-yl)amino)-11-oxoundecyl)-2-fluoro-5-((4-oxo-3,4-dihydrophthalazin-1-yl)methyl)benzamide]
20.7 | O=C1CCC(N2Cc3c(NC(=O)CCCCCCCCCCCNC(=O)c4cc(Cc5n[nH]c(=O)c6ccccc56)ccc4F)cccc3C2=O)C(=O)N1 (stereo not drawn) [compound 3, N-(12-((2–(2,6-dioxopiperidin-3-yl)-1-oxoisoindolin-4-yl)amino)-12-oxododecyl)-2-fluoro-5-((4-oxo-3,4-dihydrophthalazin-1-yl)methyl)benzamide]
